Laboratory results: patent publication US12678416B2, “L-triiodothyronine (T3) for use in limiting microvascular obstruction” (UNI-PHARMA KLEON TSETIS PHARMACEUTICAL LABORATORIES S.A., priority 2019, dated 2026)
“Also recorded” adds a separate entry of the source. Values belong to the molecule of their own block, whether it stands above or below them.

Legend:
[1] = system: patients after acute myocardial infarction; details: long-term administration of high doses; cited from earlier work
[2] = Thy-REPAIR phase II study: T3 levels in serum during hospitalization; format: in vivo, patients
Protocol: (§1) The potential effect of early administration of high dose TH (acute treatment) after an index event has been also investigated in experimental models of ischemia-reperfusion (I/R) using isolated rat heart preparations. […] Thy-REPAIR explores the effects of high-dose T3 treatment intravenously starting immediately after reperfusion and continuing for 48 hours in patients with anterior or anterolateral STEMI undergoing primary PCI. This is a double-blind randomized trial. The primary end point of this study is recovery of myocardial function after 6 months of the index event as this is assessed by Cardiac Magnetic Resonance (CMR) at discharge and at 6 months after acute myocardial infarction. This study also explores the potential effects of T3 treatment on infarct size and cardiac remodeling by assessing changes in LV volumes and geometry.
(§2) The dose administered is 0.8 μg/kg intravenously bolus starting immediately after successful opening of the culprit vessel has been established in the hemodynamic lab and followed by an infusion of 0.113 μg/kg/h intravenously for 48 hours.

STEMI patients [3] = test: Thy-REPAIR: heart rate during hospitalization; format: in vivo; details: during the first 3 days, high dose T3 vs placebo
Protocol: as §1, §2
Despite the possible increase in oxygen consumption, no increase in infarct size (IS) is found with T3 in contrast to the current belief (FIG. 3).

[4] = system: STEMI patients after PPCI; test: Thy-REPAIR: contrast-enhanced cardiac magnetic resonance (MVO, infarct size, LV function); format: in vivo
Protocol: as §1
(§3) The invention in particular concerns L-triiodothyronine for use in the treatment as set forth in the appending claims. In the broader sense, the present invention concerns L-triiodothyronine for use in the treatment of microvascular obstruction. Treatment of MVO in this context relates to the lessening of microvascular obstruction in comparison to patients which were not supplied with T3. MVO may be determined on the basis of both Cardiac Magnetic Resonance (CMR) imaging, being performed 7-12 days following primary percutaneous coronary intervention (PPCI) and restoration of ST elevation in electrocardiogram (ECG). Infarct size and ejection fraction was measured by CMR. Infarct size was also assessed enzymatically by measuring levels of troponin in blood.
as §2
Actually, cardiac magnetic resonance with gadolinium represents the gold-standard method for detection of MVO in patients with STEMI. MVO can be quantified in each patient as the percentage of left ventricular (LV) myocardium that is not adequately perfused despite restoration of blood flow in the occluded large coronary artery.
The incidence of MVO was assessed using the value of 0.47% as a cut-off point for patients with large and small extent of MVO as previously described. This analysis was additionally performed and provides a strong evidence about the T3 effect on MVO. In the placebo group (n=9), a large extent of MVO was found in 56% of patients consistent with previous published reports in the literature.

[5] = system: STEMI patients after PPCI; test: Thy-REPAIR: ST resolution in electrocardiograms on admission and after PPCI; format: in vivo; details: placebo 34%, p=0.05
From the text: as §3, §2
These unexpected findings concerning MVO were also supported by other measurements. Changes in ST elevation in electrocardiograms before and after PPCI measured as ST restoration (%) are closely correlated with the extent of MVO (FIG. 6).

STEMI patients [6] = test: Thy-REPAIR: troponin levels in blood over time; format: in vivo; details: T3 vs placebo groups
From the text: as §3, §2
Troponin levels in blood over time are mainly a measure of myocardial injury. According to the present invention, troponin levels are similar between T3 and placebo groups indicating a similar infarct size in accordance with CMR data. Thus, it seems that the effect of T3 on MVO is independent from infarct size. (FIG. 8).

STEMI patients [7] = test: Thy-REPAIR: left ventricular ejection fraction by echocardiography; format: in vivo; details: early and late after the index event, T3 vs placebo
Protocol: FIG. 12: Left ventricular ejection fraction assessed by echocardiography at different time points in STEMI patients treated with placebo and T3
as §2

[8] = system: patients with STEMI and low serum FT3 levels; details: oral T3 for 6 months, cited from earlier work
isolated rat heart = details: ex vivo, cited from earlier work; for myocardial injury as indicated by apoptosis: at the onset of reperfusion
[9] = system: reperfused STEMI patients; details: high-dose intracoronary, cohort of 247 reperfused STEMI patients; cited from earlier work

SMILES: N[C@H](Cc1cc(I)c(Oc2cc(I)c(O)c(I)c2)c(I)c1)C(=O)O [D-thyroxine]
mortality [1]: increased

T3 levels in serum relative to normal range ([2]; at discharge (7th day)): return to normal
T3 levels in serum relative to normal range ([2]; for 72 hours): far above normal range
concentration at 24 h ([2]; human, serum, at 24 hours, 0.8 μg/kg iv bolus then 0.113 μg/kg/h iv for 48 hours, placebo 0.79 (0.06), p<0.01): 5.5 ng/mL
concentration at 48 h ([2]; human, serum, at 48 hours, 0.8 μg/kg iv bolus then 0.113 μg/kg/h iv for 48 hours, placebo 0.76 (0.06), p<0.01): 4.5 ng/mL
SMILES: N[C@@H](Cc1cc(I)c(Oc2ccc(O)c(I)c2)c(I)c1)C(=O)O [T3, L-triiodothyronine]
heart rate (STEMI patients [3]): non-significant increase
extent of mean microvascular obstruction ([4]; CMR at discharge (7-12 days after the event), T3 vs placebo): less
infarct size (IS) by CMR ([4]; T3 vs placebo, at discharge): no increase; also recorded: similar
cardiac function by CMR ([4]; at 6 months, T3 vs placebo): improvement
cardiac function ([4]; at discharge and at 6 months): improved
myocardial function (EF %, LVEDVi and end-systolic volumes by CMR) ([4]; at discharge, T3 vs placebo): improved
recovery of function (ejection fraction at 6 months) versus myocardial injury (infarct size by CMR) ([4]; correlation in T3 group): independent
patients with a large extent of MVO ([4]; cut-off 0.47%, T3 group n=12, placebo (n=9) 56%, p=0.05): 25%
mean ST resolution after PPCI [5]: 54%
troponin levels in blood over time (STEMI patients [6]): similar
LV ejection fraction by echocardiography (STEMI patients [7]): improvement
regional cardiac dysfunction ([8]; commenced 72 h after onset of STEMI, max 15 μg/m^2/day, 37 patients): effective in reducing
safety of T3 replacement therapy ([8]; commenced 72 h after onset of STEMI): safe
left ventricular ejection fraction and myocardial infarct size by cardiac MRI [8]: did not show any benefit
myocardial injury as indicated by apoptosis (isolated rat heart): less
post-ischemic recovery of function (isolated rat heart; high dose at the onset of reperfusion): enhanced

SMILES: N[C@@H](Cc1cc(I)c(Oc2cc(I)c(O)c(I)c2)c(I)c1)C(=O)O [T4, L-thyroxine]
myocardial injury as indicated by apoptosis (isolated rat heart): no effect

SMILES: Nc1ncnc2c1ncn2[C@@H]1O[C@H](CO)[C@@H](O)[C@H]1O [adenosine]
MVO and MI size [9]: failed to reduce
